Test results as given in ChEMBL document CHEMBL6103627, “(±)-Feionemycin A and Chromonemycins A-D, Rearranged Aromatic Polyketides Uncovered by Type II Polyketide Gene Cluster Expression” (J Nat Prod, 2025).
Where a name gives a salt, the structure may show the parent alone.

Tests used:
[1] = tested on: K562; test: Antitumor activity against human K562 cells assessed as inhibition cell growth by MTT assay; type: functional, cell-based
[2] = tested on: MDA-MB-231; test: Antitumor activity against human MDA-MB-231 cells assessed as inhibition of cell growth by SRB assay; type: functional, cell-based
[3] = Antitumor activity against human L02 cells assessed as inhibition of cell growth by SRB assay; type: toxicity, cell-based
[4] = tested on: NCI-H446; test: Antitumor activity against human NCI-H446 cells assessed as inhibition of cell growth by SRB assay; type: functional, cell-based
[5] = Antitumor activity against human Cisplatin/etoposide-resistant NCI-H446/EP cells assessed as inhibition of cell growth by SRB assay; type: functional, cell-based
[6] = tested on: ASPC1; test: Antitumor activity against human ASPC1 cells assessed as inhibition of cell growth by SRB assay; type: functional, cell-based
[7] = tested on: Bacillus cereus; test: Antimicrobial activity against Bacillus cereus ATCC 4342 assessed as inhibition of microbial growth incubated for 24 hrs by microdilution method; type: functional, organism-based
[8] = tested on: Staphylococcus aureus; test: Antimicrobial activity against methicillin-resistant Staphylococcus aureus assessed as inhibition of microbial growth incubated for 24 hrs by microdilution method; type: functional, organism-based
[9] = tested on: Staphylococcus aureus; test: Antimicrobial activity against Staphylococcus aureus ATCC 29213 assessed as inhibition of microbial growth incubated for 24 hrs by microdilution method; type: functional, organism-based

SMILES	IC50 [1] [µM]	IC50 [2] [µM]	IC50 [3] [µM]	IC50 [4] [µM]	IC50 [5] [µM]	IC50 [6] [µM]	Activity [7]	Activity [8]	Activity [9]
CC1=CC(=O)c2c(O)cccc2[C@@]12Oc1cc(O)cc(C)c1C2=O	> 50	> 50	> 50	2.26	< 50	> 50	Weak_effect	Weak_effect	Weak_effect
Cc1cc(=O)c2c(CCCC(=O)Cc3cc(O)cc(=O)o3)cc(O)cc2o1	> 50	> 50	< 50	< 50	> 50	> 50	Weak_effect	Weak_effect	Weak_effect
Cc1cc(=O)c2c(C/C=C/[C@@H](O)Cc3cc(O)cc(=O)o3)cc(O)cc2o1	> 50	> 50	> 50	> 50	> 50	< 50			
Cc1cc(=O)c2c3c(c(O)cc2o1)/C(=C/c1cc(=O)cc(O)o1)C[C@@H](O)C3	> 50	> 50	> 50	> 50	> 50	> 50			
CC1=CC(=O)c2c(O)cccc2[C@]12Oc1cc(O)cc(C)c1C2=O	> 50	> 50	> 50	> 50	> 50	> 50	Weak_effect	Weak_effect	Weak_effect
Cc1cc(=O)c2c3c(c(O)cc2o1)[C@](O)(Cc1cc(=O)cc(O)o1)C[C@@H](O)C3	> 50	> 50	> 50	> 50	> 50	> 50			
COc1cccc2c1C(=O)c1c(O)c3c(c(O)c1C2=O)C[C@@](O)(C(=O)CO)C[C@@H]3O[C@H]1C[C@H](N)[C@H](O)[C@H](C)O1 [DOXORUBICIN HYDROCHLORIDE]			0.33	0.8	11.2	5.91			
